Data set [1] is described as follows: AUClast in mouse at 10 mg/kg, ip. As to conditions: in vivo. Type of data set: ADME, organism-based. Also on record: time 0 - last, route intraperitoneal, dose 10 mg/kg.
Data set [2] can be described thus: Aqueous solubility of the compound at pH 7. Conditions: buffer.
Data set [3] can be described thus: Permeability of the compound from basolateral to apical side in human Caco-2 cells. Conditions: read-out: permeability. Type of data set: ADME, cell-based. A general note: Caco-2 cells form a polarised layer with tight junctions and transporters.
Data set [4] in a line: Half life in mouse at 10 mg/kg, ip. Type of data set: ADME, organism-based. Conditions: in vivo.
Data set [5] in a line: Permeability of the compound from apical to basolateral side in human Caco-2 cells. Type of data set: ADME, cell-based. Conditions: read-out: permeability.
A short description of data set [6]: Protein binding in mouse plasma. Conditions: read-out: PPB (converted). Type of data set: ADME, cell-free.
Data set [7] addresses Sulfide:quinone oxidoreductase, mitochondrial (Homo sapiens, UniProt Q9Y6N5). As to the kind of experiment: Inhibition of human SQOR.

The source of these data is ChEMBL document CHEMBL5029181, “Synthesis and evaluation of potent novel inhibitors of human sulfide:quinone oxidoreductase” (Bioorg Med Chem Lett, 2021).

SMILES strings stand for the structures. Values after ≈ are worked out from the molar mass of the structure shown.

As usually defined, the AUC(0-t) is exposure summed from dosing to a finite time, without extrapolation to infinity. The low end stands for low exposure, the high end for high exposure. The solubility is the dissolved amount per volume that the medium holds. Lower therefore signals little dissolved substance. In general, half-life refers to how long it takes for the measured level to halve. Read a low half-life as fast loss. In general, IC50 refers to the concentration that inhibits the measured activity by half.

Sulfide:quinone oxidoreductase, mitochondrial, sequence (Q9Y6N5 whole entry): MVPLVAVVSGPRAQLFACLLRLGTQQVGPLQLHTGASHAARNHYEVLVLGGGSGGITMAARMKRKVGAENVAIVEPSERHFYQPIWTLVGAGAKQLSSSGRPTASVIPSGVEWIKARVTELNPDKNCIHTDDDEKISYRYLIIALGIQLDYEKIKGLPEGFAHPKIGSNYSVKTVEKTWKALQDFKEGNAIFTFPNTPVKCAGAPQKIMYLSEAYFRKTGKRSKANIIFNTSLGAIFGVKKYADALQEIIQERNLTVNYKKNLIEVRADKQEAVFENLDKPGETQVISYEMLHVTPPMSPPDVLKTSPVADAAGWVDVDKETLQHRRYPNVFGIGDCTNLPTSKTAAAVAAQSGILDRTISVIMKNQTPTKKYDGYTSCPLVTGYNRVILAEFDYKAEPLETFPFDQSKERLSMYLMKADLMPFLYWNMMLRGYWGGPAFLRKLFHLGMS

For the compound `COc1nc(-c2ncccc2C)cc(-c2ccc(F)cc2)c1C#N`, the AUC(0-t) in data set [1] amounted to 42 ng·h/mL. The solubility in data set [2] worked out at 0.013 µM (≈ 4.15 ng/mL). In data set [3], the Papp B→A was 0.769 ×10⁻⁶ cm/s. The same compound gave a half-life in data set [4] of 5.96 h. Also, in data set [5], the Papp A→B came out at 0.455 ×10⁻⁶ cm/s. Besides, the fraction unbound in data set [6] was 0.0036. In data set [7], this compound displayed an IC50 of 8.7 nM.

In the case of `COCCOc1nc(-c2ccccc2)cc(-c2ccc(F)cc2)c1C#N`, in data set [7], half-maximal inhibition (IC50) required 123 nM. On the same count and under the same terms, in the case of `COc1ccccc1-c1cc(-c2ccc(F)cc2)c(C#N)c(OC)n1` it was 75 nM; in that of `COc1nc(-c2ccccn2)cc(-c2ccc(F)cc2)c1C#N`, 14 nM. The same measure, in the same setting: in the case of `COc1nc(-c2cccnc2)cc(-c2ccc(F)cc2)c1C#N` it was 213 nM; in that of `COc1nc(-c2ccccc2)cc(-c2ccncc2)c1C#N`, 541 nM; in that of `COc1nc(C(C)(C)C)cc(-c2ccc(F)cc2)c1C#N`, 153 nM. Still for that read-out and setting: in the case of `COc1cccc(-c2cc(-c3ccc(F)cc3)c(C#N)c(OC)n2)c1` it was 108 nM. Consider `CCSc1nc(-c2ccccc2)cc(-c2ccccc2)c1C#N`, for which the IC50 in data set [7] stood at 132 nM. Compound `COc1ccc(-c2cc(-c3ccc(F)cc3)c(C#N)c(OC)n2)cc1` returned an IC50 in data set [7] of 1360 nM. The same measure, in the same setting: then `COc1nc(-c2ccccc2)cc(-c2ccc(Cl)cc2Cl)c1C#N`, with more than 100000 nM. In turn, `COc1nc(-c2ccccc2)cc(-c2ccc(Cl)cc2)c1C#N` showed an IC50 in data set [7] of 252 nM. Consider `COc1nc(-c2ccccn2)cc(C(C)(C)C)c1C#N`, for which the IC50 in data set [7] is 850 nM. As to `COc1nc(-c2ccccn2)cc(-c2ccc(F)cc2)c1C(N)=O`, in data set [7], the IC50 was 16200 nM. For `COc1nc(-c2ncccc2C)cc(-c2ccc(N)cc2)c1C#N`, in data set [1], the AUC(0-t) is 1080 ng·h/mL. This compound also had a half-life in data set [4] of 1.13 h. The fraction unbound in data set [6] is 0.022. `COc1nc(-c2ccccc2)cc(-c2ccc(F)cc2)c1C#N` yielded a 50% inhibitory concentration (IC50) in data set [7] of 25 nM.

The compound `COc1nc(-c2ccccc2)cc(-c2ccccc2)c1C#N` registered an IC50 in data set [7] of 53 nM. Still for that read-out and setting: then `Cc1cccnc1-c1cc(-c2ccc(F)cc2)c(C#N)c(OCc2cccnc2)n1`, with 36 nM; and `N#Cc1c(-c2ccccc2)cc(-c2ccccc2)nc1OCc1ccccc1`, with 100 nM. On to `COc1nc2c(c(-c3ccccc3)c1C#N)Cc1ccccc1-2`, for which it took 2.1 nM to reach half-maximal inhibition in data set [7] (IC50).

The compound `COc1nc(-c2ccncc2)cc(-c2ccc(F)cc2)c1C#N` yielded an IC50 in data set [7] of 17400 nM. `C=CCOc1nc(-c2ccccn2)cc(-c2ccc(F)cc2)c1C#N` gave an IC50 in data set [7] of 5.5 nM.
